According to ChEMBL document CHEMBL4373715, “Discovery and Biological Evaluations of Halogenated 2,4-Diphenyl Indeno[1,2-b]pyridinol Derivatives as Potent Topoisomerase IIα-Targeted Chemotherapeutic Agents for Breast Cancer” (J Med Chem, 2019):
Structures can show the parent of a compound that is named as a salt. Active and inactive are the calls of the source. The rule behind the calls is not given here.

Columns and labels:
[1] = test system: HCT-15; experiment: Antiproliferative activity against human HCT15 cells measured after 72 hrs by EZ-Cytox assay; assay type: functional, cell-based; details: HCT-15, 72 h
[2] = test system: T47D; experiment: Antiproliferative activity against human T47D cells measured after 72 hrs by EZ-Cytox assay; assay type: functional, cell-based
[3] = test system: DU-145; experiment: Antiproliferative activity against human DU145 cells measured after 72 hrs by EZ-Cytox assay; assay type: functional, cell-based; details: DU-145, 72 h
[4] = test system: HeLa; experiment: Antiproliferative activity against human HeLa cells measured after 72 hrs by EZ-Cytox assay; assay type: functional, cell-based
[5] = test system: MDA-MB-231; experiment: Antiproliferative activity against human MDA-MB-231 cells measured after 72 hrs by Ez-cytox assay; assay type: functional, cell-based; details: MDA-MB-231, 72 h
[6] = test system: MDA-MB-436; experiment: Antiproliferative activity against human MDA-MB-436 cells measured after 72 hrs by Ez-cytox assay; assay type: functional, cell-based; details: MDA-MB-436, 72 h
[7] = test system: HCC70; experiment: Antiproliferative activity against human HCC70 cells measured after 72 hrs by Ez-cytox assay; assay type: functional, cell-based; details: HCC70, 72 h
[8] = molecular target: DNA topoisomerase 2-alpha (Homo sapiens) (UniProt P11388); experiment: Poison activity at topoisomerase-2 alpha in human T47D cells assessed as stabilization of enzyme-DNA cleavage complex by measuring reduction in topo-2alpha level at 50 uM measured after 2 hrs by Western blot analysis; assay type: cell-based
[9] = test system: T47D; experiment: Induction of DNA damage in human T47D cells at 5 to 10 uM measured after 24 hrs by comet assay; assay type: functional, cell-based
[10] = molecular target: T1, DNA topoisomerase 1 (Homo sapiens) (UniProt P11387); experiment: Inhibition of recombinant human topoisomerase 1-mediated relaxation of supercoiled pBR322 DNA at 100 uM measured after 30 mins by ethidium bromide staining based agarose gel electrophoresis relative to control
T1 sequence (whole entry): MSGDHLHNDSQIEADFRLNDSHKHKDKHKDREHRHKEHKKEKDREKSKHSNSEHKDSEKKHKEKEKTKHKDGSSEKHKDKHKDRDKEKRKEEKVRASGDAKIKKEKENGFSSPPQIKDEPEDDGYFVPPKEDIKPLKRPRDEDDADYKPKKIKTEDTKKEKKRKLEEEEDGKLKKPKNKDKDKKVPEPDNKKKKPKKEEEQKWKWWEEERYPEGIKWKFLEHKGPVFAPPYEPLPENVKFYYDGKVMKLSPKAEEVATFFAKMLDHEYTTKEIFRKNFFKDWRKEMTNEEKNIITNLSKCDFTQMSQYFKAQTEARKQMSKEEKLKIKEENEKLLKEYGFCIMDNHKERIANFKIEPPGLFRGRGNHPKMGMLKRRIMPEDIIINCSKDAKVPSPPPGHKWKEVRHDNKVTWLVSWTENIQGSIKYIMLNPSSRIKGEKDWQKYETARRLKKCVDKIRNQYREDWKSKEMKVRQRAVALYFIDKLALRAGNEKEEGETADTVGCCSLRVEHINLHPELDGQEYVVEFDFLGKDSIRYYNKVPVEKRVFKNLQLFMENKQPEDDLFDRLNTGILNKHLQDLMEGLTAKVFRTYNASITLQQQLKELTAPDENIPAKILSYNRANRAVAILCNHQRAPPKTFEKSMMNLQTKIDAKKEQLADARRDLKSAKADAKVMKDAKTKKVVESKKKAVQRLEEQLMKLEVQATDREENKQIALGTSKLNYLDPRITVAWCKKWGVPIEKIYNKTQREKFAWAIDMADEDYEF

[11] = molecular target: T1, DNA topoisomerase 1 (Homo sapiens); experiment: Inhibition of recombinant human topoisomerase 1-mediated relaxation of supercoiled pBR322 DNA at 20 uM measured after 30 mins by ethidium bromide staining based agarose gel electrophoresis relative to control
[12] = molecular target: DNA topoisomerase 2-alpha (Homo sapiens) (UniProt P11388); experiment: Inhibition of recombinant human topoisomerase 2alpha-mediated relaxation of supercoiled pBR322 DNA at 100 uM measured after 30 mins by ethidium bromide staining based agarose gel electrophoresis relative to control
[13] = molecular target: DNA topoisomerase 2-alpha (Homo sapiens) (UniProt P11388); experiment: Inhibition of recombinant human topoisomerase 2alpha-mediated relaxation of supercoiled pBR322 DNA at 20 uM measured after 30 mins by ethidium bromide staining based agarose gel electrophoresis relative to control
[14] = test system: Calf thymus DNA; experiment: Inhibition of EtBr binding to calf thymus DNA measured after 30 mins by fluorescence assay; assay type: nucleic-acid assay; details: Bos taurus

Chain of DNA topoisomerase 2-alpha (Homo sapiens) (P11388 whole entry): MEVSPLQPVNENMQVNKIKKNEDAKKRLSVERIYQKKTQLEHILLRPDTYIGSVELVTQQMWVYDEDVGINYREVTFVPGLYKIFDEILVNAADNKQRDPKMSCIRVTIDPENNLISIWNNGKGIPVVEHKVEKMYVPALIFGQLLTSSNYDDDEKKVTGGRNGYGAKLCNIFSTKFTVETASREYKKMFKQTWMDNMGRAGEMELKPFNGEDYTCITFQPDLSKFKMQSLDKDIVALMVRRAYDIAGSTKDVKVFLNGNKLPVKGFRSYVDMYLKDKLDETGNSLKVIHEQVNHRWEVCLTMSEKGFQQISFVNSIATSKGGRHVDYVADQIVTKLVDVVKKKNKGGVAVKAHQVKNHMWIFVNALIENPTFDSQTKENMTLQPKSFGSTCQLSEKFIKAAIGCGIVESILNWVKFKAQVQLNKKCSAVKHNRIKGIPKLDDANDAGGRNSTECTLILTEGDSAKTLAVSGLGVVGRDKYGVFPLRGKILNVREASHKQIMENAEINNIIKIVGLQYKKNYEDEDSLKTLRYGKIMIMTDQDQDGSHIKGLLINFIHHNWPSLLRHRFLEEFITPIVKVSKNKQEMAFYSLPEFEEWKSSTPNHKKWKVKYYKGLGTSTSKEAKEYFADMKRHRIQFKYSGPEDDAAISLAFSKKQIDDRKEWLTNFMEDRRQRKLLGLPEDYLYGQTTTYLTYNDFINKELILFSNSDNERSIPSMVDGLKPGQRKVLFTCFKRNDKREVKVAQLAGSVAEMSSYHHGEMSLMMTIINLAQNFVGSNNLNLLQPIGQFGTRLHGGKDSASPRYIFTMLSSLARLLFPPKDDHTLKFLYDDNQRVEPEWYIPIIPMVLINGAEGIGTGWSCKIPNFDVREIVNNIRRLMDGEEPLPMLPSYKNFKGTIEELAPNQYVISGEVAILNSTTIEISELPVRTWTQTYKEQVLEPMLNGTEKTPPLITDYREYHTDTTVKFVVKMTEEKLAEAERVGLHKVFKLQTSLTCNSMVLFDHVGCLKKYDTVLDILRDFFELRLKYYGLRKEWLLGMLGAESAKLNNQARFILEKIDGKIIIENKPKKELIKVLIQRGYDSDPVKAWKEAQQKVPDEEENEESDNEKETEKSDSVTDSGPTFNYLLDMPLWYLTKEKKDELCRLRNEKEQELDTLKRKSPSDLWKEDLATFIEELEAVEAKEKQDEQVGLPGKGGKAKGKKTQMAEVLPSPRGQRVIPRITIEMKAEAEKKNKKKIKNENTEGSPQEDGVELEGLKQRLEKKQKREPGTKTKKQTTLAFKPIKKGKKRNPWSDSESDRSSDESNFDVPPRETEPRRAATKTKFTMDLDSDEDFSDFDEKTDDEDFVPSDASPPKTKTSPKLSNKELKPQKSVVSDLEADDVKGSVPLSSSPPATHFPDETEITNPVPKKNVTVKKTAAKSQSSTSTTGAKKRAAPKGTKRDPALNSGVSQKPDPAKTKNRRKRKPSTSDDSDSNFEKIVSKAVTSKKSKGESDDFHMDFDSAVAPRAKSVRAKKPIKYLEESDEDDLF

Structure (SMILES)	inhibition [10] [%]	inhibition [11] [%]	inhibition [12] [%]	inhibition [13] [%]	inhibition [14]	IC50 [1] [nM]	IC50 [2] [nM]	IC50 [3] [nM]	IC50 [4] [µM]	IC50 [5] [µM]	IC50 [6] [µM]	IC50 [7] [nM]	Activity [8]	Activity [9]	IC50 ([7]; read-out: IC50) [nM]
CC[C@@]1(O)C(=O)OCc2c1cc1n(c2=O)Cc2cc3ccccc3nc2-1 [CAMPTOTHECIN]	–	–	–	–	–	49 to 350	250 to 1980	50 to 810	0.5 to 1.39	24	31.9	44	–	–	–
COc1cc([C@@H]2c3cc4c(cc3[C@@H](O[C@@H]3O[C@@H]5CO[C@@H](C)O[C@H]5[C@H](O)[C@H]3O)[C@H]3COC(=O)[C@H]23)OCO4)cc(OC)c1O [ETOPOSIDE]	–	–	–	–	–	1270 to 6970	1640 to 5540	1150 to 4490	4.13 to 9.75	> 50	39.4	–	Active	Active	> 50000
Oc1cccc(-c2cc(-c3ccccc3Cl)c3c(n2)-c2c(O)cccc2C3)c1	79.3	0.2	80.2	3.6	–	2430	2510	3210	3.64	–	–	–	–	–	–
Oc1ccc(-c2cc(-c3ccc(C(F)(F)F)cc3)nc3c2Cc2ccc(O)cc2-3)cc1	100	0	83.1	0.5	–	5030	1360	2980	5.51	–	–	–	–	–	–
Oc1cccc(-c2cc(-c3ccccc3C(F)(F)F)nc3c2Cc2c(O)cccc2-3)c1	65.7	0	89.5	2.1	–	3390	1460	1800	3.79	–	–	–	–	–	–
COc1cc(NS(C)(=O)=O)ccc1Nc1c2ccccc2nc2ccccc12	–	–	–	–	Dose-dependent effect	–	–	–	–	–	–	–	–	–	–
Oc1ccc(-c2cc(-c3cccc(C(F)(F)F)c3)nc3c2Cc2cc(O)ccc2-3)cc1	55.8	0.3	88.7	4.6	–	3470	1430	1900	4.52	–	–	–	–	–	–
Oc1ccc(-c2cc(-c3ccccc3Cl)c3c(n2)-c2cccc(O)c2C3)cc1	62.9	0	97	13	–	2420	1730	5840	3.72	–	–	–	–	–	–
Oc1ccc(-c2cc(-c3ccc(C(F)(F)F)cc3)nc3c2Cc2cc(O)ccc2-3)cc1	87.4	0	83.2	1.1	–	2630	1910	1140	4.8	–	–	–	–	–	–
COc1cccc2c1C(=O)c1c(O)c3c(c(O)c1C2=O)C[C@@](O)(C(=O)CO)C[C@@H]3O[C@H]1C[C@H](N)[C@H](O)[C@H](C)O1 [DOXORUBICIN HYDROCHLORIDE]	–	–	–	–	–	740 to 2020	340 to 1500	870 to 2960	0.8 to 4.59	5.18	2.03	–	–	–	1450
Oc1ccc(-c2cc(-c3ccc(C(F)(F)F)cc3)nc3c2Cc2c(O)cccc2-3)cc1	32.8	0	91.3	11.1	–	> 50000	2010	2110	6.54	–	–	–	–	–	–
Oc1ccc(-c2cc(-c3ccccc3C(F)(F)F)nc3c2Cc2cc(O)ccc2-3)cc1	13.9	–	85.9	0	–	2430	1050	2310	2.07	–	–	–	–	–	–
Oc1cccc(-c2cc(-c3cccc(Cl)c3)c3c(n2)-c2ccc(O)cc2C3)c1	3.7	–	83	27	–	25300	22600	6290	7.74	–	–	–	–	–	–
Oc1ccccc1-c1cc(-c2ccccc2)nc2c1Cc1cccc(O)c1-2	0.1	–	95.8	0.1	–	1360	2440	170	2.95	–	–	–	–	–	–
Oc1ccc(-c2cc(-c3ccc(Cl)cc3)c3c(n2)-c2ccc(O)cc2C3)cc1	7.7	–	98.1	8.9	–	18500	1510	1430	6.83	–	–	–	–	–	–
Oc1cccc(-c2cc(-c3ccccc3C(F)(F)F)nc3c2Cc2cc(O)ccc2-3)c1	11.7	–	80.6	2.4	–	2820	1250	2500	4	–	–	–	–	–	–
Oc1cccc(-c2cc(-c3ccccc3)nc3c2Cc2cc(O)ccc2-3)c1	20	–	96.8	0	–	1480	2660	600	5.64	–	–	–	–	–	–
Oc1cccc(-c2cc(-c3cccc(F)c3)nc3c2Cc2ccc(O)cc2-3)c1	17.1	–	44.2	4.9	–	1190	540	2170	3.45	–	–	–	–	–	–

Now from value to molecule, other results behind:

inhibition [10] [%]	inhibition [11] [%]	inhibition [12] [%]	inhibition [13] [%]	inhibition [14]	Structure (SMILES)	IC50 [1] [nM]	IC50 [2] [nM]	IC50 [3] [nM]	IC50 [4] [µM]	IC50 [5] [µM]	IC50 [6] [µM]	IC50 [7] [nM]	Activity [8]	Activity [9]	IC50 ([7]; read-out: IC50) [nM]
59.1	14.8	74.1	38.2	–	Oc1ccc2c(c1)-c1nc(-c3ccccc3O)cc(-c3ccccc3Cl)c1C2	7980	3280	3990	> 50	–	–	–	–	–	–
55.9	6.3	93.2	13.8	–	Oc1cccc(-c2cc(-c3ccccc3Cl)c3c(n2)-c2cc(O)ccc2C3)c1	2500	2910	2030	5	–	–	–	–	–	–
37	7.4	55.9	3.5	–	Oc1ccc2c(c1)Cc1c(-c3ccccc3Cl)cc(-c3ccccc3O)nc1-2	3130	3820	4430	17.9	–	–	–	–	–	–
7.6	–	86.6	53.6	–	Oc1ccc(-c2cc(-c3ccccc3Cl)nc3c2Cc2cc(O)ccc2-3)cc1	1850	1870	430	0.7	–	–	–	–	–	–
26.8	–	97.5	4.4	–	Oc1ccc2c(c1)Cc1c(-c3ccccc3O)cc(-c3ccc(Cl)cc3)nc1-2	3970	620	650	3.84	–	–	–	–	–	–
77.4	6.3	91.3	20	–	Oc1cccc(-c2cc(-c3ccccc3Cl)c3c(n2)-c2ccc(O)cc2C3)c1	3820	2840	2350	6.48	–	–	–	–	–	–
13.4	–	80.9	3.7	–	Oc1ccccc1-c1cc(-c2ccccc2Cl)nc2c1Cc1cccc(O)c1-2	3170	870	290	1.12	–	–	–	–	–	–
1.6	–	90.2	3.7	–	Oc1ccc2c(c1)Cc1c(-c3ccccc3O)cc(-c3ccccc3C(F)(F)F)nc1-2	1610	1140	2020	2.92	–	–	–	–	–	–
3.9	–	88.7	38.3	–	Oc1cccc(-c2cc(-c3ccccc3Cl)nc3c2Cc2ccc(O)cc2-3)c1	3040	550	570	> 50	–	–	–	–	–	–
